According to ChEMBL document CHEMBL3137667, “[Drug-induced liver injury; fourteenth updated edition of the bibliographic database of liver injuries and related drugs]” (Gastroenterol Clin Biol, 2004):

What was measured:
[1] = Proposed mechanism(s) of liver damage. [column 'MEC' in source]; settings: human
[2] = human
[3] = Highest frequency of moderate liver toxicity observed during clinical trials, expressed as a percentage. [column '% BIOL' in source]; settings: human
[4] = human; remark: listed apart in the source
[5] = human; remark: listed apart in the source
[6] = human; remark: listed apart in the source
[7] = human, serum
[8] = Highest frequency of acute liver toxicity observed during clinical trials, expressed as a percentage. [column '% AIGUE' in source]; settings: human
[9] = human, serum, 4383 h
[10] = human, serum; remark: listed apart in the source
[11] = human; remark: listed apart in the source
[12] = Comments (NB not yet translated). [column 'COMMENTAIRES' in source]; settings: human
[13] = human; remark: listed apart in the source
[14] = human; remark: listed apart in the source
[15] = human; remark: listed apart in the source
[16] = Times to onset, minimal and maximal, observed in the indexed observations. [column 'DELAI' in source]; settings: human
[17] = human; remark: listed apart in the source
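For Hepatotoxicity (association with vascular disease) in this document: count of indexed literature references reporting vascular liver injury in humans, e.g. peliosis hepatitis, hepatic veno-occlusive disease or Budd-Chiari syndrome.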
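For Hepatotoxicity (benign tumour) in this document: value is a count of indexed literature references citing a benign tumour confirmed by histopathology.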
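For Hepatotoxicity (choleostasis) in this document: human cholestatic liver injury, shown by histopathology or by peak ALT or AST elevation over alkaline phosphatase ratio below 2, value counts indexed literature reports.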
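For Hepatotoxicity (chronic liver disease) in this document: chronic liver injury confirmed by histopathology or persistently raised serum aminotransferase activity beyond 6 months, value given as the count of indexed literature references.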
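For Hepatotoxicity (cirrhosis) in this document: value is a count of indexed literature references reporting cirrhosis confirmed by histopathology.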
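For Hepatotoxicity (cytolytic) in this document: human cytolytic liver injury, shown by histopathology or by a ratio above 5 of peak ALT or AST elevation to alkaline phosphatase elevation, value counts indexed references.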
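For Hepatotoxicity (granulomatous hepatitis) in this document: value is a count of indexed literature references reporting granulomatous liver disease confirmed by histopathology.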
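For Hepatotoxicity (malignant tumour) in this document: malignant tumour confirmed by histopathology, value gives the count of indexed literature references reporting it.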
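For Hepatotoxicity (severe hepatitis) in this document: human clinical data: severe hepatitis, meaning potentially life-threatening liver failure or clinically observed cases, the value counts how many indexed literature references report it.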
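For Hepatotoxicity (steatosis) in this document: steatosis confirmed by histopathology, value is the count of indexed references.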

| SMILES | Hepatotoxicity (mechanism) [1] | Hepatotoxicity (severe hepatitis) [2] | Hepatotoxicity (moderate) [3] | Hepatotoxicity (malignant tumour) [4] | Hepatotoxicity (granulomatous hepatitis) [5] | Hepatotoxicity (steatosis) [6] | Hepatotoxicity (moderate) [7] | Hepatotoxicity (acute) [8] | Hepatotoxicity (chronic liver disease) [9] | Hepatotoxicity (acute) [10] | Hepatotoxicity (choleostasis) [11] | Hepatotoxicity (comment) [12] | Hepatotoxicity (association with vascular disease) [13] | Hepatotoxicity (cytolytic) [14] | Hepatotoxicity (benign tumour) [15] | Hepatotoxicity (time to onset) [16] | Hepatotoxicity (cirrhosis) [17] | other results |
| --- | --- | --- | --- | --- | --- | --- | --- | --- | --- | --- | --- | --- | --- | --- | --- | --- | --- | --- |
| CCc1cc2c(s1)N(C)C(=O)CN=C2c1ccccc1Cl [CLOTIAZEPAM] | Allergic | 0 | 0% | 0 | 0 | 0 | 0 | 0% | 0 | 2 | 0 | AC_ANTI-N | 0 | 2 | 0 | 7 months | 0 | – |
| CN1CCC(=C2c3ccccc3C=Cc3ccccc32)CC1 [CYPROHEPTADINE] | Allergic | 0 | 0% | 0 | 0 | 0 | 0 | 0% | 0 | 5 | 3 | CHOLESTASE_PROLONGEE CHOLANGITE | 0 | 3 | 0 | 1 week - 1 month | 0 | – |
| CC(=O)Oc1cccc2c1C(=O)c1c(OC(C)=O)cc(C(=O)O)cc1C2=O [DIACEREIN] | Allergic | 1 | 0% | 0 | 0 | 0 | 0 | 0% | 0 | 2 | 1 | AC_ANTI-N | 0 | 1 | 0 | 10 days | 0 | – |
| Cc1onc(-c2c(Cl)cccc2Cl)c1C(=O)N[C@@H]1C(=O)N2[C@@H]1SC(C)(C)[C@@H]2C(=O)O [DICLOXACILLIN] | Allergic | 0 | 0% | 0 | 1 | 0 | 2 | 0% | 1 | 4 | 3 | CHOLESTASE_PROLONGEE | 0 | 0 | 0 | 5 days - 2 months | 0 | – |
| O=C(O)c1cc(-c2ccc(F)cc2F)ccc1O [DIFLUNISAL] | – | – | – | 0 | – | 0 | 2 | – | 0 | 5 | – | AC_ANTI-ML | 0 | – | 0 | 1 week - 1 month | 0 | Hepatotoxicity (mechanism) ([1]; Liver): Allergic; Hepatotoxicity (severe hepatitis) ([2]; Liver): 0; Hepatotoxicity (moderate) ([3]; Liver): 5%; Hepatotoxicity (granulomatous hepatitis) ([5]; Liver): 1; Hepatotoxicity (acute) ([8]; Liver): 0%; Hepatotoxicity (choleostasis) ([11]; Liver): 4; Hepatotoxicity (cytolytic) ([14]; Liver): 2 |
| C[C@H]1c2cccc(O)c2C(=O)C2=C(O)[C@]3(O)C(=O)C(C(N)=O)=C(O)[C@@H](N(C)C)[C@@H]3[C@@H](O)[C@@H]21.O [DOXYCYCLINE] | Allergic | 1 | 10% | 0 | 0 | 2 | 8 | 0% | 1 | 5 | 3 | CHOLESTASE_PROLONGEE DUCTOPENIE | 0 | 1 | 0 | 1 day - 12 years | 0 | – |
| COc1cc([C@@H]2c3cc4c(cc3[C@@H](O[C@@H]3O[C@@H]5CO[C@@H](C)O[C@H]5[C@H](O)[C@H]3O)[C@H]3COC(=O)[C@H]23)OCO4)cc(OC)c1O [ETOPOSIDE] | – | – | – | 0 | – | 0 | 24 | – | 0 | 4 | – | MVO | 10 | – | 0 | 1 week - 5 weeks | 0 | Hepatotoxicity (mechanism) ([1]; Liver): Dose-dependant; Hepatotoxicity (severe hepatitis) ([2]; Liver): 5; Hepatotoxicity (moderate) ([3]; Liver): 50%; Hepatotoxicity (granulomatous hepatitis) ([5]; Liver): 0; Hepatotoxicity (acute) ([8]; Liver): 1%; Hepatotoxicity (choleostasis) ([11]; Liver): 2; Hepatotoxicity (cytolytic) ([14]; Liver): 2 |
| O=C(c1cc(O)c(O)c(O)c1)c1ccc(O)c(O)c1O [EXIFONE] | Allergic, Toxic | 4 | 0% | 0 | 0 | 0 | 0 | 0% | 0 | 9 | 0 | AC_ANTI-ML/-N | 0 | 9 | 0 | 3 weeks - 8 months | 0 | – |
| COCCCC/C(=N\OCCN)c1ccc(C(F)(F)F)cc1 [FLUVOXAMINE] | Dose-dependant | 0 | 0% | 0 | 0 | 0 | 5 | 0% | 0 | 3 | 2 | SURDOSAGE | 0 | 1 | 0 | 4 days - 4 months | 0 | – |
| CC(=O)O[C@H]1C[C@@]2(C)[C@@H](C[C@@H](O)[C@H]3[C@@]4(C)CC[C@@H](O)[C@@H](C)[C@@H]4CC[C@@]32C)/C1=C(\CCC=C(C)C)C(=O)O [FUSIDIC ACID] | Dose-dependant | 0 | 50% | 0 | 0 | 0 | 12 | 34% | 0 | 19 | 2 | HYPERBILIRUBINEMIE | 0 | 0 | 0 | 2 days - 2 months | 0 | – |
| COc1c(N2CCNC(C)C2)c(F)cc2c(=O)c(C(=O)O)cn(C3CC3)c12 (centres undefined) [GATIFLOXACIN] | Allergic | 1 | 6.5% | 0 | 0 | 2 | 18 | 0% | 1 | 3 | 2 | CHOLESTASE_PROLONGEE DUCTOPENIE | 0 | 2 | 0 | 2 days - 8 days | 0 | – |
| Cc1ccc(C)c(OCCCC(C)(C)C(=O)O)c1 [GEMFIBROZIL] | Dose-dependant | – | – | 0 | 0 | 1 | 24 | – | 0 | 1 | 0 | I/LOVASTATINE | 0 | 1 | 0 | 9 days - 12 days | 0 | Hepatotoxicity (severe hepatitis) ([2]; Liver): 0; Hepatotoxicity (moderate) ([3]; Liver): 10%; Hepatotoxicity (acute) ([8]; Liver): 0% |
